In patent publication US7655629B2, “Peptides and their use for the treatment of HIV infections” (priority 2002, dated 2010):
Where two headings read alike, the source gives them in different places. Positions of bridges follow the written chain, without caps; N, C: chain ends. Non-standard residues stand in square brackets, D forms with d. Residues, ends and D or L forms follow the SMILES beside them. Tic = O=C(O)[C@@H]1Cc2ccccc2CN1; AEEA = NCCOCCOCC(=O)O

How the values were obtained:
[1] = rat, plasma
Procedure: (§2) Plasma was spiked resulting in concentrations of 40 μg/ml and stored at 37° C. At time points 0, 15, 30, 45, 60, 120, 180, 240 and 300 min samples of 20 μl were taken. The plasma was immediately mixed for precipitation with the two-fold volume of acetonitrile containing 0.15% (w/v) n-nonyl-β-D-glucopyranoside. Following centrifugation the supernatants were mixed with the two-fold volume of 0.1% (v/v) trifluroacetic acid. Twenty μl of these solutions were analyzed by LC-MS. Chromatography was performed using a gradient with the following eluents: eluent A: water containing 0.06% trifluroacetic acid (v/v), eluent B: acetonitrile/water 80:20 (v/v; with 0.05% trifluoroacetic acid; v/v). A C18 precolumn was used in combination with a C18 separation column (300 Å, 5 μm, 150×1 mm inner diameter) at a flow rate of 30 μl/min. HPLC eluates were ionized by the electrospray technique of a LCQ classic mass spectrometer. Areas of the detected peaks of the peptides of the present invention were measured and used for quantification by external calibration. The calibration curve was linear over a range from 0.5 μg/ml to 250 μg/ml plasma. Half life—defined as the period for a concentration decrease to 50% of the initial concentration—was calculated from the slope of an extrapolated curve plotting the relative peptide concentration at a given time point (logarithm scale) against the incubation time. These experiments allowed the quantitative analysis of peptide concentration in plasma.

[2] = cynomolgus monkey, plasma
Procedure: as §2

[3] = human, plasma
Procedure: as §2

X4-tropic HIV-1 NL4-3 = details: read-out: IC50 NL4-3; P4-CCR5 cells, HIV-1 NL4-3, peptide 2 h before infection, readout three days after infection
How it was run: (§1)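 P4-CCR5 cells (CD4, CCR5, CXCR4, HIV-1 promoter-driven β-galactosidase) pretreated 2 h with peptide, then infected with virus containing 1 ng p24 antigen and incubated overnight. Cells washed and cultured without peptide; three days post-infection infectivity read by chemiluminescent β-galactosidase assay, in quintuplicate.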

HIV-1 NL4-3 DTV = details: read-out: IC50 DTV, P4-CCR5 cells, peptide 2 h before infection, readout three days after infection
How it was run: as §1

[4] = dog, plasma
Procedure: as §2

SMILES | half-life [1] | half-life [2] | half-life [3] | IC50 (X4-tropic HIV-1 NL4-3) | IC50 (HIV-1 NL4-3 DTV) | half-life [4]
CC[C@H](C)[C@H](NC(=O)[C@H](C)NC(=O)[C@H](CCC(=O)O)NC(=O)[C@@H](N)CC(C)C)C(=O)N1CCC[C@H]1C(=O)N[C@H]1CSSC[C@@H](C(=O)N[C@H](C(=O)NCC(=O)N[C@@H](Cc2ccccc2)C(=O)NCC(=O)N[C@@H](CCCCN)C(=O)N2CCC[C@H]2C(=O)N[C@@H](Cc2ccccc2)C(=O)N[C@H](C(=O)N[C@@H](Cc2ccccc2)C(=O)O)C(C)C)C(C)C)NC(=O)[C@H]2CCCN2C(=O)[C@@H]2CCCN2C(=O)[C@H]([C@@H](C)CC)NC(=O)[C@H](CO)NC1=O [VIR-348, LEAIPCSIPpCVGFGKPFVF] (H-LEAIPCSIP[dP]CVGFGKPFVF-OH; disulfide 6-11) | 0.2 h | 3 h | 3.3 h | 326 nM | 541 nM | 9.3 h
CC[C@H](C)[C@H](NC(=O)[C@H](C)NC(=O)[C@H](CCC(=O)O)NC(=O)[C@@H](N)CC(C)C)C(=O)N1CCC[C@H]1C(=O)N[C@H]1CSSC[C@@H](C(=O)N[C@@H](Cc2ccccc2)C(=O)N[C@@H](CC(C)C)C(=O)N[C@@H](Cc2ccccc2)C(=O)NCC(=O)N[C@@H](CCCCN)C(=O)N2CCC[C@H]2C(=O)N[C@@H](Cc2ccccc2)C(=O)N[C@H](C(=O)N[C@@H](Cc2ccccc2)C(=O)O)C(C)C)NC(=O)[C@@H]2CCCN2C(=O)[C@@H]2CCCN2C(=O)[C@H]([C@@H](C)CC)NC(=O)[C@H](CO)NC1=O [VIR-345] (H-LEAIPCSIPPCFLFGKPFVF-OH; disulfide 6-11) | 0.1 h | 5.1 h | 5.6 h | 298 nM | 376 nM | 10.7 h
CC[C@H](C)[C@H](NC(=O)[C@H](C)NC(=O)[C@H](CCC(=O)O)NC(=O)[C@@H](N)CC(C)C)C(=O)N1CCC[C@H]1C(=O)N[C@@H](CCSC)C(=O)N[C@@H](CO)C(=O)N[C@H]1CSSC[C@@H](C(=O)N[C@@H](Cc2ccccc2)C(=O)NCC(=O)N[C@@H](CCCCN)C(=O)N2CCC[C@H]2C(=O)N[C@@H](Cc2ccccc2)C(=O)N[C@H](C(=O)N[C@@H](Cc2ccccc2)C(=O)O)C(C)C)NC(=O)[C@H](Cc2ccccc2)NC(=O)[C@H](CCC(=O)O)NC(=O)[C@@H]2CCCN2C(=O)[C@@H]2CCCN2C1=O [VIR-568] (H-LEAIPMSCPPEFCFGKPFVF-OH; disulfide 8-13) | 0.1 h | 2.2 h | 3.9 h | 367 nM | 552 nM | 4 h
CC[C@H](C)[C@H](NC(=O)[C@@H]1CCCN1C(=O)[C@@H](NC(=O)[C@H](CCCCN)NC(=O)[C@H](CCC(=O)O)NC(=O)[C@@H](N)CC(C)C)[C@@H](C)CC)C(=O)NCC(=O)N[C@H](C(=O)N1CCC[C@H]1C(=O)N1CCC[C@@H]1C(=O)N[C@@H](CCC(=O)O)C(=O)N[C@H](C(=O)N1Cc2ccccc2C[C@H]1C(=O)N[C@@H](Cc1ccccc1)C(=O)N[C@@H](CC(N)=O)C(=O)N[C@@H](CCCCN)C(=O)N1CCC[C@H]1C(=O)N[C@@H](Cc1ccccc1)C(=O)N[C@H](C(=O)N[C@@H](Cc1ccccc1)C(=O)O)C(C)C)C(C)C)[C@@H](C)CC [VIR-484, LEKIPIGIPpEV(L-Tic)FNKPFVF] (H-LEKIPIGIP[dP]EV[Tic]FNKPFVF-OH) | 0.2 h | 3.6 h | 5 h | 100 nM | 339 nM | 12.4 h
CC[C@H](C)[C@H](NC(=O)[C@H](CCCCN)NC(=O)[C@H](CCC(=O)O)NC(=O)[C@@H](N)CC(C)C)C(=O)N1CCC[C@H]1C(=O)N[C@H]1CSSC[C@@H](C(=O)N[C@H](C(=O)N[C@@H](C)C(=O)N[C@@H](Cc2ccccc2)C(=O)N[C@@H](CC(N)=O)C(=O)N[C@@H](CCCCN)C(=O)N2CCC[C@H]2C(=O)N[C@@H](Cc2ccccc2)C(=O)N[C@H](C(=O)N[C@@H](Cc2ccccc2)C(=O)O)C(C)C)C(C)C)NC(=O)[C@H]2CCCN2C(=O)[C@@H]2CCCN2C(=O)[C@H]([C@@H](C)CC)NC(=O)[C@H](CO)NC1=O [VIR-358, LEKIPCSIPpCVAFNKPFVF] (H-LEKIPCSIP[dP]CVAFNKPFVF-OH; disulfide 6-11) | 0.4 h | 4.7 h | 5.9 h | 706 nM | 944 nM | 16 h
CC[C@H](C)[C@H](NC(=O)[C@H](C)NC(=O)[C@H](CCC(=O)O)NC(=O)[C@@H](N)CC(C)C)C(=O)N1CCC[C@H]1C(=O)N[C@H]1CSSC[C@@H](C(=O)N[C@H](C(=O)N[C@@H](Cc2ccccc2)C(=O)N[C@@H](Cc2ccccc2)C(=O)NCC(=O)N[C@@H](CCCCN)C(=O)N2CCC[C@H]2C(=O)N[C@@H](Cc2ccccc2)C(=O)N[C@H](C(=O)N[C@@H](Cc2ccccc2)C(=O)O)C(C)C)C(C)C)NC(=O)[C@@H]2CCCN2C(=O)[C@@H]2CCCN2C(=O)[C@H]([C@@H](C)CC)NC(=O)[C@H](CO)NC1=O [VIR-344] (H-LEAIPCSIPPCVFFGKPFVF-OH; disulfide 6-11) | 0.1 h | 10.5 h | 7 h | 348 nM | 448 nM | 6.6 h
CC[C@H](C)[C@H](NC(=O)[C@H](CCCCN)NC(=O)[C@H](CCC(=O)O)NC(=O)[C@@H](N)CC(C)C)C(=O)N1CCC[C@H]1C(=O)N[C@@H](CCSC)C(=O)N[C@@H](CO)C(=O)N[C@H](C(=O)N1CCC[C@H]1C(=O)N1CCC[C@@H]1C(=O)N[C@@H](CCC(=O)O)C(=O)N[C@H](C(=O)N1Cc2ccccc2C[C@H]1C(=O)N[C@@H](Cc1ccccc1)C(=O)N[C@@H](CC(N)=O)C(=O)N[C@@H](CCCCN)C(=O)N1CCC[C@H]1C(=O)N[C@@H](Cc1ccccc1)C(=O)N[C@H](C(=O)N[C@@H](Cc1ccccc1)C(=O)O)C(C)C)C(C)C)[C@@H](C)CC [VIR-455, LEKIPMSIPpEV(L-Tic)FNKPFVF] (H-LEKIPMSIP[dP]EV[Tic]FNKPFVF-OH) | 0.3 h | 6.8 h | 5.8 h | 134 nM | 353 nM | 8.6 h
CC[C@H](C)[C@H](NC(=O)[C@H](C)NC(=O)[C@H](CCC(=O)O)NC(=O)[C@@H](N)CC(C)C)C(=O)N1CCC[C@H]1C(=O)N[C@@H](CCSC)C(=O)NCC(=O)N[C@H](C(=O)N1CCC[C@H]1C(=O)N1CCC[C@@H]1C(=O)N[C@@H](CCC(=O)O)C(=O)N[C@H](C(=O)N1Cc2ccccc2C[C@H]1C(=O)N[C@@H](Cc1ccccc1)C(=O)N[C@@H](CC(N)=O)C(=O)N[C@@H](CCCCN)C(=O)N1CCC[C@H]1C(=O)N[C@@H](Cc1ccccc1)C(=O)N[C@H](C(=O)N[C@@H](Cc1ccccc1)C(=O)O)C(C)C)C(C)C)[C@@H](C)CC [VIR-449, LEAIPMGIPpEV(L-Tic)FNKPFVF] (H-LEAIPMGIP[dP]EV[Tic]FNKPFVF-OH) | 0.2 h | 4.2 h | 4.8 h | 274 nM | 240 nM | 42.2 h
CC[C@H](C)[C@H](NC(=O)[C@H](C)NC(=O)[C@H](CCC(=O)O)NC(=O)[C@@H](N)CC(C)C)C(=O)N1CCC[C@H]1C(=O)N[C@@H](CCSC)C(=O)N[C@@H](CO)C(=O)N[C@H](C(=O)N1CCC[C@H]1C(=O)N1CCC[C@H]1C(=O)N[C@@H](CCC(=O)O)C(=O)N[C@@H](Cc1ccccc1)C(=O)N[C@@H](CC(C)C)C(=O)N[C@@H](Cc1ccccc1)C(=O)NCC(=O)N[C@@H](CCCCN)C(=O)N1CCC[C@H]1C(=O)N[C@@H](Cc1ccccc1)C(=O)N[C@H](C(=O)N[C@@H](Cc1ccccc1)C(=O)NCCOCCOCC(=O)NCCOCCOCC(N)=O)C(C)C)[C@@H](C)CC [VIR-580] (H-LEAIPMSIPPEFLFGKPFVF[AEEA][AEEA]-NH2) | 1.4 h | 10.2 h | 38.9 h | 150 nM | 497 nM | 42 h
CC[C@H](C)[C@H](NC(=O)[C@H](C)NC(=O)[C@H](CCC(=O)O)NC(=O)[C@@H](N)CC(C)C)C(=O)N1CCC[C@H]1C(=O)N[C@@H](CCSC)C(=O)N[C@H]1CSSC[C@@H](C(=O)N[C@@H](CC(C)C)C(=O)N[C@@H](Cc2ccccc2)C(=O)NCC(=O)N[C@@H](CCCCN)C(=O)N2CCC[C@H]2C(=O)N[C@@H](Cc2ccccc2)C(=O)N[C@H](C(=O)N[C@@H](Cc2ccccc2)C(=O)O)C(C)C)NC(=O)[C@H](CCC(=O)O)NC(=O)[C@@H]2CCCN2C(=O)[C@@H]2CCCN2C(=O)[C@H]([C@@H](C)CC)NC1=O [VIR-274] (H-LEAIPMCIPPECLFGKPFVF-OH; disulfide 7-12) | 0.1 h | 2.8 h | 2 h | 576 nM | 1420 nM | 9.5 h
CC[C@H](C)[C@H](NC(=O)[C@H](C)NC(=O)[C@H](CCC(=O)O)NC(=O)[C@@H](N)CC(C)C)C(=O)N1CCC[C@H]1C(=O)N[C@H]1CSSC[C@@H](C(=O)N[C@H](C(=O)N[C@@H](Cc2ccccc2)C(=O)N[C@@H](Cc2ccccc2)C(=O)N[C@@H](CC(N)=O)C(=O)N[C@@H](CCCCN)C(=O)N2CCC[C@H]2C(=O)N[C@@H](Cc2ccccc2)C(=O)N[C@H](C(=O)N[C@@H](Cc2ccccc2)C(=O)O)C(C)C)C(C)C)NC(=O)[C@H]2CCCN2C(=O)[C@@H]2CCCN2C(=O)[C@H]([C@@H](C)CC)NC(=O)[C@H](CO)NC1=O [VIR-352, LEAIPCSIPpCVFFNKPFVF] (H-LEAIPCSIP[dP]CVFFNKPFVF-OH; disulfide 6-11) | 0.2 h | 6.4 h | 3.6 h | 340 nM | 624 nM | 23.7 h
